# Paper PMC3914206
# What was measured:
# Format in all cases: binding
# Settings in all cases: Compound Concentration 10 µM
# panel of 442 kinases [1] = target: T1, panel of 442 kinases (Homo sapiens, UniProt P19525)
# T1 construct: purchased KINOMEscan
# Description: (§1) We assessed the selectivity of members of this scaffold using the KINOMEscan methodology across a near comprehensive panel of 442 kinases [[18,27]].
# panel of 442 kinases [2] = target: T2, panel of 442 kinases (Homo sapiens, UniProt P57058)
# T2 construct: purchased KINOMEscan
# T2 sequence (P57058 1-714): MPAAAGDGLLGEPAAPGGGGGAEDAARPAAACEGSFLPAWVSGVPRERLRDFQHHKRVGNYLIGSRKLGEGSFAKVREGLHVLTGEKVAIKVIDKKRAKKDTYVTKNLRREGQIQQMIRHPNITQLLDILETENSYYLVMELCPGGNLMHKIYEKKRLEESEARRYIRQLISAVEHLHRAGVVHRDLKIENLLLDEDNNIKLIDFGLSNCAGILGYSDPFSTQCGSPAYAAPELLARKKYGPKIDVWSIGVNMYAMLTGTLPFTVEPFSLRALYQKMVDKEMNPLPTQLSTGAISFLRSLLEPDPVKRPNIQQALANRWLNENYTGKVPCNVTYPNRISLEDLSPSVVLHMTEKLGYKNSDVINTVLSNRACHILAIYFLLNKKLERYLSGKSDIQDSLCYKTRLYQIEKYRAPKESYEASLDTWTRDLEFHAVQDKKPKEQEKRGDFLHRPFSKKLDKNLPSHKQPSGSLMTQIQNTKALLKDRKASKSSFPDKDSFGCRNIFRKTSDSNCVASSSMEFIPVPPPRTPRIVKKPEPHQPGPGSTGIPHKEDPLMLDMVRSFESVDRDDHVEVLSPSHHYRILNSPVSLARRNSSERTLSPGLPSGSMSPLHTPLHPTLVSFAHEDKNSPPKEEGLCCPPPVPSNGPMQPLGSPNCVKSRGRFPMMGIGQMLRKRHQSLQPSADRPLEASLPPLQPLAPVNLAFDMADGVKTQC
# Description: as §1
# panel of 442 kinases [3] = target: T3, panel of 442 kinases (Homo sapiens, UniProt P45984)
# T3 construct: purchased KINOMEscan
# Description: as §1
# T1 sequence (P19525 whole entry): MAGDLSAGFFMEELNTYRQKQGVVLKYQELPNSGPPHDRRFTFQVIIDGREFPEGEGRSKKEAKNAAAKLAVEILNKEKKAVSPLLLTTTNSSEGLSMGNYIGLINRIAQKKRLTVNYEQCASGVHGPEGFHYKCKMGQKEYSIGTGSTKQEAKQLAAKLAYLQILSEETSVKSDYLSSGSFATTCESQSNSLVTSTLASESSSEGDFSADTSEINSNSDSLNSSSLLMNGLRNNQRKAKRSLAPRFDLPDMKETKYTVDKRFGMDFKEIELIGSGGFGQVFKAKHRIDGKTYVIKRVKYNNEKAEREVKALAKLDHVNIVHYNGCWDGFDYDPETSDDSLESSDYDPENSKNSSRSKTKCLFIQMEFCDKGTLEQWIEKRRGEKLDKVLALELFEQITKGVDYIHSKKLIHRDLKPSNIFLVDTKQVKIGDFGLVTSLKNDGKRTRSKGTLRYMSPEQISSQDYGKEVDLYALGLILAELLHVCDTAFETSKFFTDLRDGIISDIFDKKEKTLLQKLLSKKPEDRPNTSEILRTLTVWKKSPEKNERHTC
# T3 sequence (P45984 whole entry): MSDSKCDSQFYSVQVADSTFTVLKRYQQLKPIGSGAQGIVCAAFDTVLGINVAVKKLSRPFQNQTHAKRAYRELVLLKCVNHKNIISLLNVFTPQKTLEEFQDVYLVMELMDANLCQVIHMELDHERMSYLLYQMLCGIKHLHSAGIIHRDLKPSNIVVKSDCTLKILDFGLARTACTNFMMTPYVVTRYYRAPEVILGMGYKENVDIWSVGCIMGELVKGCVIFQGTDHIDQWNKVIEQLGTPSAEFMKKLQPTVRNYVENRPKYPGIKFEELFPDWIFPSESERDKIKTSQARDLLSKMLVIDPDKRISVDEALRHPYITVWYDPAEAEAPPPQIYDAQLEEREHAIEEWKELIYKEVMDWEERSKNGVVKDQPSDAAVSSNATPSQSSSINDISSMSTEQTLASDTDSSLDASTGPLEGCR
SMILES,KINOMEscan: PRKR (panel of 442 kinases [1]),KINOMEscan: HUNK (panel of 442 kinases [2]),KINOMEscan: JNK2 (panel of 442 kinases [3])
"COc1cc(C(=O)N2CCC(N3CCN(C)CC3)CC2)ccc1Nc1ncc2c(n1)N(C1CCCC1)c1ccccc1C(=O)N2C [Compound 25, 11-cyclopentyl-2-((2-methoxy-4-(4-(4-methylpiperazin-1-yl)piperidine-1-carbonyl)phenyl)amino)-5-methyl-5H-benzo[e]pyrimido[5,4-b][1,4]diazepin-6(11H)-one]",71,100,44
CCOc1cc(C(=O)N2CCC(N3CCN(C)CC3)CC2)ccc1Nc1ncc2c(n1)N(C1CCCC1)c1ccccc1C(=O)N2C [Compound 26],97,53,63
COc1cc(C(=O)N2CCC(N3CCN(C)CC3)CC2)ccc1Nc1ncc2c(n1)N1CCc3cccc(c31)C(=O)N2C [Compound 24],33,–,42
COc1cc(C(=O)N2CCC(N3CCN(C)CC3)CC2)ccc1Nc1ncc2c(n1)N(C)c1ccccc1C(=O)N2C [15 (LRRK2-IN-1)],84,100,94
